Among the data in PubChem BioAssay (NCI) are GI50 and TGI values, retold here.

The structures appear in SMILES notation. “And” between values parts separate entries of the source, which are not always exact repeats. Equal entries are not always repeated.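 96-well plates; 48 h exposure; 5 concentrations. Endpoints by linear interpolation between flanking doses. Not reached: highest tested concentration assigned. GI50: concentration for 50% inhibition of growth. TGI: concentration producing complete growth inhibition.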 Where only a bound is given, the exact number is not on record here.

Among the test systems are A498 renal; CAKI-1 renal; COLO 205 colon; EKVX NSCLC; IGROV1 ovarian; MCF7 breast; MDA-MB-435; NCI-H226 lung; PC-3 prostate; SW-620 colon.
Common to all, as to assay: NCI anticancer screen, dose series, 48 h

For `CCCN(CCC)c1ccc(/C=N/NC(=O)c2cccnc2)c(OC)c1`, the GI50 in the test with A498 renal is 2.27 µM; with CAKI-1 renal it was 21.5 µM; with COLO 205 colon, 20.1 µM; with EKVX NSCLC, 16.9 µM; in the test with IGROV1 ovarian it was 29.3 µM; in the test with MCF7 breast it was 19.1 µM. Also, the GI50 was 10.3 µM in the test on MDA-MB-435, 32 µM with NCI-H226 lung, 25.2 µM with PC-3 prostate and 24.5 µM with SW-620 colon. Further, the TGI with A498 renal was 17.9 µM; in the test on CAKI-1 renal, 93.2 µM; in the test with COLO 205 colon it was 46.3 µM; with EKVX NSCLC it was 59.2 µM; in the test with IGROV1 ovarian, above 100 µM; with MCF7 breast it was 89.1 µM. The TGI is 43 µM in the test on MDA-MB-435, above 100 µM in the test on NCI-H226 lung, above 100 µM in the test on PC-3 prostate and above 100 µM in the test on SW-620 colon.

In the case of `COc1cc2nccc(Oc3ccc(NC(=O)Nc4cc(C)on4)c(Cl)c3)c2cc1OC`, the GI50 is 0.532 µM and 1.46 µM with A498 renal; 2.58 µM and 2.25 µM in the test with CAKI-1 renal; 3.22 µM and 3.04 µM in the test on COLO 205 colon; 3.02 µM and 4.69 µM with EKVX NSCLC; 2.51 µM and 2.85 µM in the test with IGROV1 ovarian; 3.35 µM in the test on MCF7 breast. In addition, the GI50 in the test with MDA-MB-435 is 2.74 µM and 2.98 µM; in the test on NCI-H226 lung it was 0.795 µM and 0.438 µM; in the test with PC-3 prostate it was 4.74 µM and 5.91 µM; with SW-620 colon, 3.11 µM and 4.09 µM. Also, the TGI with A498 renal was 2.67 µM and 4.6 µM; in the test with CAKI-1 renal, 7.67 µM and > 10 µM; with COLO 205 colon it was 32.7 µM and > 10 µM; with EKVX NSCLC, 49.6 µM and > 10 µM; in the test on IGROV1 ovarian, 8.36 µM and > 10 µM; in the test on MCF7 breast, 56.2 µM and > 10 µM. In addition, the TGI with MDA-MB-435 is above 59.6 µM; with NCI-H226 lung it was 35.2 µM and > 10 µM; with PC-3 prostate, above 100 µM; with SW-620 colon it was 18.4 µM and > 10 µM.

In the case of `CCCCCCCCCNC(=O)/C=C/c1ccc(O)c(O)c1`, the GI50 in the test on A498 renal was 16.2 µM; in the test on CAKI-1 renal, 3.91 µM; with COLO 205 colon, 15.3 µM; with EKVX NSCLC, 37.5 µM; in the test on IGROV1 ovarian, 1.1 µM; in the test with MCF7 breast it was 28.3 µM. For the same molecule, the GI50 with MDA-MB-435 is 7.58 µM; in the test with NCI-H226 lung it was 10.4 µM; in the test with PC-3 prostate it was 3.61 µM; in the test with SW-620 colon, 3.06 µM. Further, the TGI in the test with A498 renal is 32.1 µM; with CAKI-1 renal, 24.2 µM; with COLO 205 colon, 54.3 µM; in the test on EKVX NSCLC, above 100 µM; in the test on IGROV1 ovarian it was 5.49 µM; in the test on MCF7 breast, above 100 µM. In addition, the TGI in the test with MDA-MB-435 came to 23.5 µM; in the test with NCI-H226 lung, 25.5 µM; with PC-3 prostate, 36.2 µM; in the test with SW-620 colon, 30.4 µM.

In the case of `O=C(Nc1cccc(-c2ccc(Cl)c(C(F)(F)F)c2)c1)C1CCN(Cc2cccc3cccnc23)CC1`, the GI50 in the test on A498 renal was 1.33 µM; in the test with CAKI-1 renal, 1.61 µM; in the test on COLO 205 colon it was 1.45 µM; with EKVX NSCLC, 1.73 µM; in the test on IGROV1 ovarian, 1.55 µM; with MCF7 breast it was 1.44 µM. The GI50 in the test with MDA-MB-435 is 1.71 µM; with NCI-H226 lung it was 1.88 µM; in the test with PC-3 prostate, 1.41 µM; with SW-620 colon, 1.77 µM. Further, the TGI in the test with A498 renal was 2.65 µM; in the test on CAKI-1 renal, 2.97 µM; in the test on COLO 205 colon it was 3.12 µM; in the test on EKVX NSCLC it was 3.15 µM; with IGROV1 ovarian, 2.99 µM; in the test on MCF7 breast, 2.95 µM. Also, the TGI with MDA-MB-435 is 3.1 µM; in the test with NCI-H226 lung, 3.89 µM; with PC-3 prostate it was 2.93 µM; with SW-620 colon, 3.54 µM.

Regarding `Oc1ccc(C2c3ccccc3Oc3ccccc32)c2cccnc12`, the GI50 in the test on A498 renal is 1.74 µM; in the test with CAKI-1 renal, 0.568 µM; with COLO 205 colon, 3.18 µM; in the test with EKVX NSCLC it was 2 µM; with IGROV1 ovarian, 1.62 µM; in the test on MCF7 breast, 1.74 µM. Further, the GI50 in the test with MDA-MB-435 is 3.07 µM; in the test with NCI-H226 lung, 1.23 µM; in the test with PC-3 prostate, 1.9 µM; in the test on SW-620 colon, 1.17 µM. For the same molecule, the TGI is 64.4 µM with A498 renal; above 100 µM in the test with CAKI-1 renal; above 100 µM with COLO 205 colon; above 100 µM in the test with EKVX NSCLC; above 100 µM in the test with IGROV1 ovarian; above 100 µM in the test on MCF7 breast. Moreover, the TGI in the test on MDA-MB-435 was above 100 µM; with NCI-H226 lung, 7.92 µM; in the test with PC-3 prostate it was above 100 µM; with SW-620 colon it was above 100 µM.

As for `Cc1cc2c(C(N)=O)c(N)n(-c3c(C)ccc(O)c3C)c2nc1C`, the GI50 is 7.5 µM with A498 renal; 0.4 µM with CAKI-1 renal; 1.7 µM with COLO 205 colon; 21.8 µM in the test on EKVX NSCLC; 3.04 µM with IGROV1 ovarian; 3.41 µM with MCF7 breast. The GI50 was 1.04 µM in the test on MDA-MB-435, 0.569 µM in the test on NCI-H226 lung, 32.7 µM in the test with PC-3 prostate and 3.17 µM in the test with SW-620 colon. Further, the TGI in the test with A498 renal is 24.3 µM; with CAKI-1 renal, 10.3 µM; with COLO 205 colon it was 11.7 µM; in the test with EKVX NSCLC, 98.7 µM; with IGROV1 ovarian, 12 µM; with MCF7 breast, above 100 µM. For the same molecule, the TGI was 3.33 µM with MDA-MB-435, 4.89 µM with NCI-H226 lung, above 100 µM in the test with PC-3 prostate and 56.4 µM in the test with SW-620 colon.

Turning to `O=C1OC(=O)C2CCCC3CCCC1C32` (stereo not given), the TGI in the test on A498 renal, in the test with CAKI-1 renal, in the test with COLO 205 colon, in the test with EKVX NSCLC, with IGROV1 ovarian and in the test on MCF7 breast was above 100 µM in each case. The TGI in the test on MDA-MB-435, in the test with NCI-H226 lung, in the test with PC-3 prostate and in the test with SW-620 colon was above 100 µM in each case.

On to `CC1=C(C(=O)Nc2cc(Cl)c3[nH]ncc3c2)C(c2ccc(C(F)(F)F)cc2)CC(=O)N1` (stereo not given), for which the GI50 was 11.7 µM in the test on A498 renal; above 25 µM with CAKI-1 renal; 14.8 µM in the test with COLO 205 colon; above 25 µM in the test on EKVX NSCLC; above 25 µM in the test on IGROV1 ovarian; above 16.1 µM in the test with MCF7 breast. For the same molecule, the GI50 with MDA-MB-435 was above 23.3 µM; with NCI-H226 lung, 2.11 µM; in the test with PC-3 prostate, above 25 µM; in the test on SW-620 colon, above 25 µM. In addition, the TGI with A498 renal, in the test on CAKI-1 renal, in the test with COLO 205 colon, with EKVX NSCLC, with IGROV1 ovarian and in the test with MCF7 breast was above 25 µM each time. Further, the TGI in the test with MDA-MB-435, in the test with NCI-H226 lung, in the test on PC-3 prostate and in the test on SW-620 colon was above 25 µM in each case.
